Each structure is given as a SMILES string.

In this assay the target is T1, Sirt6 (Homo sapiens, UniProt Q8N6T7).
T1 construct: purchased CycLex CY-1156V2
T1 sequence (Q8N6T7 whole entry): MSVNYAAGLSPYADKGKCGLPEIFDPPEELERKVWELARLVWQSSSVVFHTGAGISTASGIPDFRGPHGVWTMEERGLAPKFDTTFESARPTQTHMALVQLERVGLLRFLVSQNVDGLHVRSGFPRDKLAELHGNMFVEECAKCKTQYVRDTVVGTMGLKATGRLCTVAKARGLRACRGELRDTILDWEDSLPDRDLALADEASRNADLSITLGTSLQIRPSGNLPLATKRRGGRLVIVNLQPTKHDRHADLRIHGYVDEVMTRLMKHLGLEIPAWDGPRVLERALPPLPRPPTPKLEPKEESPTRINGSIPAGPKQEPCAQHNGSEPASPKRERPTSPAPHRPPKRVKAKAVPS
The experiment in a line: Measurement of Sirt6 Activity (CycLex Sirt6 Deacetylase Fluorometric Assay Kit). The class given is biochemical. The conditions noted are these: compound at 10 μM; fluorescence relative to the group without compound treatment (positive control group). The method, then:
LC-MS (ESI, m/z)=430.1 (M+H^+) Experimental Example 1: Measurement of Sirt6 Activity Compounds having Sirt6 activity were selected using a CycLex Sirt6 Deacetylase Fluorometric Assay Kit (cat. CY-1156V2) manufactured by CycLex.
When a fluorescent-attached acetylated lysine substrate is treated with Sirt6 enzyme, Sirt6 deacetylates the acetylated lysine of the substrate and lysylendopeptidase cleaves the C-terminal peptide bond connected to the lysine, by which fluorescence is emitted. The activity of a compound is calculated by observing the intensity of fluorescence when the compound is treated along with Sirt6 enzyme. When treating the compound, the compound aids in the activity of Sirt6 enzyme, so as to result in stronger fluorescence. Therefore, by calculating the ratio of the stronger fluorescence relative to the fluorescence emitted from the group without compound treatment (i.e., positive control group), relative activity can be calculated.
Activity evaluation was performed according to the following procedure.
The compound whose activity is to be evaluated was prepared by diluting in phosphate-buffered saline (PBS) to 10 times of the desired concentration (e.g., when measuring Sirt6 assay activity at 10 μM, the compound is prepared at a concentration of 100 μM in PBS). 1 μL of a 1 Ox Sirt6 assay buffer, 0.8 μL of 50× fluoro-substrate peptide, 1 μL of nicotinamide adenine dinucleotide (NAD), 1 μL of a developer and 4.2 μL of H2O were mixed to prepare mixtures equal to the number of samples, and 8 μL was dispensed into each Black 384 well. An additional 1 μL of PBS was added to each of a “no enzyme group” and a positive control group, and 1 μL of the compound diluted in PBS was added to an activity evaluation group. Recombinant Sirt6 was 1:8 diluted in a 1×Sirt6 assay buffer, and 1 μL thereof was added to each of the positive control group and the activity evaluation group. 1 μL of the 1×Sirt6 assay buffer was added to the “no enzyme group.” After reacting at room temperature for one hour, results were measured with a fluorescence spectrometer (excitation: 490±10 nm, emission: 530±10 nm) to confirm the presence or absence of Sirt6 activity and measure the intensity of the activity.
For the molecule `CCS(=O)(=O)Nc1cccc(-c2nn(-c3ccc(-c4ccccc4)cc3)c(=O)c3ccccc23)c1` [Example 64, N-(3-(3-([1,1′-Biphenyl]-4-yl)-4-oxo-3,4-dihydrophthalazin-1-yl)phenyl)ethane Sulfonamide], the “Sirt6 Activity (% activity, 10 μM)” value stood at 106 % activity.
With `CCS(=O)(=O)Nc1cccc(-c2nn(C(C)C)c(=O)c3ccccc23)c1` [Example 132, N-(3-(3-Isopropyl-4-oxo-3,4-dihydrophthalazin-1-yl)phenyl)ethanesulfonamide], the “Sirt6 Activity (% activity, 10 μM)” value amounted to 107.58 % activity.
The same measure for `CC(C)S(=O)(=O)Nc1cccc(-c2nn(-c3ccc(F)cc3)c(=O)c3ccccc23)c1` [Example 67, N-(3-(3-(4-Fluorophenyl)-4-oxo-3,4-dihydrophthalazin-1-yl)phenyl)propan-2-sulfonamide]: 166 % activity; for `COC(=O)NS(=O)(=O)Nc1cccc(-c2nn(-c3ccc(F)cc3)c(=O)c3ccccc23)c1` [Example 20, Methyl (N-(3-(3-(4-fluorophenyl)-4-oxo-3,4-dihydrophthalazin-1-yl)phenyl)sulfamoyl) Carbamate]: 211 % activity.
The same measure for `O=C(O)C1(c2cccc(-c3nn(-c4ccc(F)cc4F)c(=O)c4ccccc34)c2)CC1` [Example 183, 1-(3-(3-(2,4-Difluorophenyl)-4-oxo-3,4-dihydrophthalazin-1-yl)phenyl)cyclopropan-1-carboxylic Acid]: 194.70 % activity; for `Cl.NC1CCCCN(c2nn(C3CCCC3)c(=O)c3ccccc23)C1` (stereo not shown) [Example 173, 4-(3-Aminoazepan-1-yl)-2-cyclopentyl phthalazin-1(2H)-one-hydrochloride]: 112.2 % activity.
For the molecule `C/[N+]([O-])=C/c1cccc(-c2nn(-c3ccc(-c4ccccc4)cc3)c(=O)c3ccccc23)c1` [Example 84, (Z)-1-(3-(3-([1,1′-Biphenyl]-4-yl)-4-oxo-3,4-dihydrophthalazin-1-yl)phenyl)-N-methylmethanimine Oxide], the “Sirt6 Activity (% activity, 10 μM)” value is recorded as 123 % activity.
As to `CNC(=O)C(C)(C)c1cccc(-c2nn(-c3ccc(F)cc3)c(=O)c3ccccc23)c1` [Example 153, 2-(3-(3-(4-Fluorophenyl)-4-oxo-3,4-dihydrophthalazin-1-yl)phenyl)-N,2-dimethylpropanamide], the “Sirt6 Activity (% activity, 10 μM)” value amounted to 280.4 % activity.
The same measure for `CCS(=O)(=O)Nc1cccc(-c2nn(-c3ccc(F)cc3)c(=O)c3cccc(C)c23)c1` [Example 150, N-(3-(3-(4-Fluorophenyl)-8-methyl-4-oxo-3,4-dihydrophthalazin-1-yl)phenyl)ethanesulfonamide]: 104.7 % activity.
The same measure for `CS(=O)(=O)c1cccc(-c2nn(-c3c(F)cccc3F)c(=O)c3ccccc23)c1` [Example 105, 2-(2,6-Difluorophenyl)-4-(3-(methylsulfonyl)phenyl)phthalazin-1 (2H)-one]: 226 % activity.
The same measure for `COc1ccc(-c2nn(-c3ccc(F)cc3)c(=O)c3ccccc23)cc1/C=[N+](\[O-])C(C)(C)C` [Example 49, (Z)—N-tert-Butyl-1-(5-(3-(4-fluorophenyl)-4-oxo-3,4-dihydrophthalazin-1-yl)-2-methoxyphenyl)methan Imine Oxide]: 107 % activity; for `O=C(O)C1(c2cccc(-c3nn(-c4ccc(F)cc4F)c(=O)c4ccccc34)c2)CCCC1` [Example 208, 1-(3-(3-(2,4-Difluorophenyl)-4-oxo-3,4-dihydrophthalazin-1-yl)phenyl)cyclopentane-1-carboxylic Acid]: 117.30 % activity; for `CCNS(=O)(=O)c1cccc(-c2nn(-c3ccc(F)cc3F)c(=O)c3ccc(F)cc23)c1` [Example 124, 3-(3-(2,4-Difluorophenyl)-7-fluoro-4-oxo-3,4-dihydrophthalazin-1-yl)-N-ethylbenzenesulfonamide]: 146 % activity.

Source of the values: patent publication US20220235011A1, “PHTHALAZINONE COMPOUNDS AND USE THEREOF” (ST PHARM CO., LTD., priority 2019, published 2022).
